According to paper PMC7927021 (Toxins, 2021):
“And” between values parts separate entries of the source, which are not always exact repeats. Identical values can stand only once.

Columns and labels:
[1] = set-up: method as in PMID 21699062; conditions: established by JECFA in 2011; cited from earlier work
Caco-2 cells [2] = format: cell-based, human
Caco-2 cells [3] = format: cell-based, human; remark: listed apart in the source

SMILES | PMTDI (Provisional Maximum Tolerable Daily Intake) [1] [μg/kg bw per day] | Number of KEGG pathways in which DEGs were enriched (Caco-2 cells [2]) | Number of differentially expressed genes (DEGs) (Caco-2 cells [2]) | Concentration range in which viability was significantly/sharply reduced (Caco-2 cells [3]) [µM] | Concentration range of robust decrease in cell viability (Caco-2 cells [3]) [µM] | IC50 (Caco-2 cells [3])
CC1=C[C@H]2O[C@@H]3[C@H](O)C[C@](C)([C@@]2(CO)[C@H](O)C1=O)[C@]31CO1 [DON, Deoxynivalenol] | 1 | 27 | 2656 | 0.2 to 10 | 0.2 to 10 | –
CC(=O)O[C@@H]1C[C@]2(C)[C@@]3(CO)[C@H](O)C(=O)C(C)=C[C@H]3O[C@H]1[C@@]21CO1 [3-ADON, trichothec-9-en-8-one, 3-(acetyloxy)-12,13-epoxy-7,15-dihydroxy-, (3α,7α)] | – | 42 | 3132 | 1 to 10 | 2 to 10 | 13.2 µM and 10.8 µM and 7.84 µM
CC(=O)OC[C@]12[C@H](O)C(=O)C(C)=C[C@H]1O[C@@H]1[C@H](O)C[C@@]2(C)[C@]12CO2 [15-ADON, trichothec-9-en-8-one, 15-(acetyloxy)-12,13-epoxy-3,7-dihydroxy-, (3α,7α)] | – | 28 | 2425 | 0.2 to 10 | 0.5 to 10 | –
